According to patent publication US20210147812A1, “Method of Preparing Cancer Spheroid and Method of Selecting Colorectal Cancer Patient” (Kyo Diagnostics K.K., priority 2017, published 2021):
Like-named read-outs stand apart in the source and are kept apart here.

Experiments:
[1] = tested on: three luciferase-expressing CRC-TIC spheroid lines (HC21T, HC18T, HC25T); assay: Chemical library screening of 80 agonists or activators for growth-promoting effects; assay type: cell-based; details: Homo sapiens, read-out: stimulation of spheroid growth
Method: For growth monitoring assays, luciferase-expressing spheroids were cultured in 2-3 wells of a 12-well cell-culture plate. […] The spheroid cells were resuspended in Matrigel, distributed to the wells of 96-well “white” cell-culture plates (Corning; 3 μl per well) on a plate heater at 37° C., and cultured overnight in 100 μl/well of the medium. Spheroids were rinsed with 100 μl/well of PBS, and incubated with 50 μl of 150 μg/ml luciferin in phenol red-free DMEM/F12 medium (Nacalai) for 10 min at room temperature […]. Luminescence was scored using a conventional imaging device (Gel Doc XR+, BioRad). After this initial measurement, spheroids in each well were rinsed with 100 μl of PBS, and cultured in 100 μl of the medium. Luminescence was determined daily or 3 days later. The cell growth rate for each well was estimated as the proportion of photon counts to those on day 1.

[2] = tested on: spheroid lines HC6T, HC9T, and HC20T; assay: Drug sensitivity tests in spheroids (GEI); assay type: cell-based, human; details: dose-dependent, FIGS. 16A-16C
Method: (§1) Luciferase-expressing spheroids were cultured in 2-3 wells of a 12-well cell-culture plate (in 60-90 μl Matrigel). […] From the spheroid solution thus obtained, 300 μl was taken and the cells were resuspended in an equal volume of Matrigel. The spheroid cells in Matrigel were distributed to the wells of 96-well “white” cell-culture plates (Corning; 3 μl per well) on a plate heater at 37° C., and cultured overnight in 100 μl/well of the medium. Spheroids were rinsed with 100 μl/well of PBS, and incubated with 50 μl of 150 μg/ml luciferin in phenol red-free DMEM/F12 medium (Nacalai) for 10 min at room temperature (20-28° C.). Luminescence was scored using a conventional imaging device (Gel Doc XR+, BioRad). After this initial measurement, spheroids in each well were rinsed with 100 μl of PBS, and cultured in 100 μl of the medium. Luminescence was determined on day 1 and day 3. Effects of a drug was determined by obtaining GEI (growth effect index), which is the growth rate of a group treated with the drug compared to a control group (a solvent-treated group). Results were shown using means in three independent experiments each conducted in triplicate.
The spheroid lines shown in Table 3 were used in this example.

[3] = tested on: two CRC-TIC spheroid lines (HC18T and HC21T); assay: Titration experiments, dose-dependent effects on growth (GEI); assay type: cell-based, human; details: for effect on spheroid growth in titration: at 10 μM
Method: Shown are the plots and means of GEI in three independent experiments. Asterisks indicate significant differences from the solvent-only group (P<0.05; analyzed using one-way ANOVA followed by Tukey's post-test).
Shown are the mean GEI±SEM (independent experiments, n=3). Asterisks indicate significant differences from the solvent-only (0 μM) group (P<0.05; analyzed using one-way ANOVA followed by Tukey's post-test).
(§2) Luminescence was determined daily or 3 days later. The cell growth rate for each well was estimated as the proportion of photon counts to those on day 1. Four or six replicates (with similar statistical power) were analyzed for each data point in all experiments except for the chemical compound screening assays.

[4] = tested on: CRC spheroids (HC18T, HC21T, and HC52T); assay: Morphology of spheroids after treatment with cAMP-signaling activators (phase-contrast micrographs); assay type: cell-based, human; details: 10 μM CV1808, 1 μM NECA, or 1 μM forskolin for five days
[5] = tested on: HC21T spheroid line; assay: Titration experiment, growth promotion (GEI); assay type: cell-based, human
Method: as §2

[6] = tested on: eleven CRC-TIC spheroid lines and four normal spheroid lines; assay: Dose-dependent effects of SB431542 on the growth of spheroid lines (GEI); assay type: cell-based, human
Method: Luciferase-expressing cancer and normal spheroids were cultured in the cancer medium and the eL-WRN medium each containing EGF and bFGF, respectively, in the presence of SB431542 at the indicated concentrations. Tested were eleven CRC-TIC spheroid lines (circle) and four normal spheroid lines (square). Shown are the mean GEI of four replicates.
as §2

[7] = tested on: normal colonic epithelial stem cell spheroids; assay: Drug sensitivity tests in spheroids (GEI); assay type: cell-based, human; details: concentrations below 1 μM
Method: as §1

[8] = tested on: HC6T-PDSX mice; assay: Drug sensitivity tests in PDSX models (tumor volume); assay type: in vivo, nude mice (BALB/c-nu); details: 21 days; erdafitinib 10 mg/kg orally, cetuximab 250 μg i.p. twice a week
Method: Patient-derived spheroids were cultured in a 12-well culture plate to become confluent (4×10^5-4×10^6 cells/plate) and the spheroids were rinsed twice with PBS and placed in a 1.5 ml tube with Matrigel. The volume of the spheroid suspension was adjusted to 100 μl with PBS and the suspension thus obtained was subcutaneously injected into 4-6 week female nude mice (BALB/c-nu) at 1×10^5-9×10^5 cells/mouse.
PDSX mice were subjected to drug-dosing test when the mean estimated tumor volume reached 300 mm^3. Tumor volume (mm^3) was estimated by the following formula: length×width^2/2. We excluded the following kinds of tumors from the tests as outliers; too small (<100 mm^3), spontaneously shrinking, remaining unchanged in size, or deeply implanted and difficult to be measured.
The day of the dosing start was defined as day 0, with the tumor volume of each mouse measured twice a week for 3 weeks (days 0-21).
The relative tumor volume was estimated by calibration to the initial tumor volume on day 0. To evaluate the drug dosing effects, the ratio of tumor volume on day 21 to that on day 0 was compared among the four groups.

[9] = tested on: HC6T-PDSX and HC20T-PDSX tumors; assay: Histological examinations of PDSX tumors at day 21 (H&E, Ki67); assay type: in vivo, nude mice (BALB/c-nu); details: erdafitinib monotherapy group
Method: Paraffin-embedded tissues of PDSXs were prepared according to the standard procedures. Sections were stained with H&E or immunostained for Ki67.

[10] = tested on: CRC-TIC spheroid lines that carried wild-type RAS/RAF genes (HC6T, HC9T, HC11T, HC21T); assay: Stimulation of spheroid growth with EGF and/or bFGF, luminescence-based growth monitoring (GEI); assay type: cell-based, human; details: HC6T, HC9T
Method: as §2
To investigate whether EGF and bFGF helped spheroid proliferation in the cancer medium as described above, we cultured with EGF and/or bFGF four slow-growing CRC-TIC spheroid lines that carried wild-type RAS/RAF genes (HC6T, HC9T, HC11T, HC21T). Because EGF/bFGF facilitated the growths of these spheroid lines substantially (FIG. 3A), we then quantified their effects by the luminescence-based growth monitoring. To calibrate the effects, we introduced the growth effect index (GEI) defined as the relative growth rate of a treated group to that of its solvent-only control in each paired assay. […] The extents of growth promotion by EGF and bFGF were different depending on the spheroid line. […] In another spheroid line (HC21T), the effects were similar between the two growth factors (FIG. 3B).

CCCCCCCCc1ccc(-c2ccc(C(=O)O)cc2)cc1 [AC55649, 4′-Octyl-[1,1′-biphenyl]-4-carboxylic acid]
activation at 10 µM ([1]; 10 μM each): > 25%

CCN1CCN(c2ccc(Nc3cc(N(C)C(=O)Nc4c(Cl)c(OC)cc(OC)c4Cl)ncn3)cc2)CC1 [BGJ398]
growth of spheroid lines (GEI) [2]: suppressed the growth

C=CC(=O)N[C@H]1CCOC[C@H]1Nc1ncc2cc(-c3c(Cl)c(OC)cc(OC)c3Cl)ccc2n1 [BLU554]
growth of spheroid lines (GEI) [2]: suppressed the growth

Nc1nc(Nc2ccccc2)nc2c1ncn2[C@@H]1O[C@H](CO)[C@@H](O)[C@H]1O [CV1808, 2-phenylaminoadenosine]
activation at 10 µM ([1]; 10 μM each): > 25%
growth-promoting effect compared with NECA ([3]; dose-dependent, FIG. 9A): growth-promoting effect though weaker than that of NECA
morphological changes in spheroids [4]: cell flattening and increased sphere size

CCn1c(=O)[nH]c2cc(Cl)c(Cl)cc21 [DCEBIO, 5,6-Dichloro-1-ethyl-1,3-dihydro-2H-benzimidazol-2-one]
activation at 10 µM ([1]; 10 μM each): > 25%

Cc1cc(SCc2sc(-c3ccc(C(F)(F)F)c(F)c3)nc2C)ccc1OCC(=O)O [GW0742, [4-[[[2-[3-fluoro-4-(trifluoromethyl)phenyl]-4-methyl-5-thiazolyl]methyl]thio]-2-methylphenoxy]-acetic acid]
activation at 10 µM [1]: > 25%
effect on spheroid growth in titration [3]: significant effects

CC(C)(Sc1ccc(CCN(CCCCC2CCCCC2)C(=O)NC2CCCCC2)cc1)C(=O)O [GW7647, 2-methyl-2-[[4-[2-[[(cyclohexylamino)carbonyl](4-cyclohexylbutyl)amino]ethyl]phenyl]thio]-propanoic acid]
activation at 10 µM ([1]; 10 μM each): > 25%

CCCc1c(OCCCOc2ccc(OCC(=O)O)cc2)ccc(C(C)=O)c1O [L-165,041, [4-[3-(4-Acetyl-3-hydroxy-2-propylphenoxy)propoxy]phenoxy]acetic acid]
activation at 10 µM ([1]; 10 μM each): > 25%

CCNC(=O)[C@H]1O[C@@H](n2cnc3c(N)ncnc32)[C@H](O)[C@@H]1O [NECA, 5′-(N-ethyl-carboxamido)-adenosine]
EC50 [5]: 195 nM
morphological changes in spheroids [4]: cell flattening and increased sphere size

CN[C@H](CC(=O)O)C(=O)O [NMDA, N-Methyl-D-aspartic acid]
activation at 10 µM [1]: > 25%

NC(=O)c1ccc(-c2nc(-c3ccc4c(c3)OCO4)c(-c3ccccn3)[nH]2)cc1 [SB431542, 4-[4-(1,3-benzodioxol-5-yl)-5-(2-pyridinyl)-1H-imidazol-2-yl]benzamide]
effect on spheroid growth ([6]; at 10 μM): growth inhibition
effect on cancer versus normal spheroids ([6]; indicated concentrations, FIG. 7A): effects on cancer spheroids were less than those on normal spheroids

Nc1nc2c(ccc3ccccc32)s1 [SKA-31, Naphtho[1,2-d]thiazol-2-ylamine]
activation at 10 µM ([1]; 10 μM each): > 25%
effect on spheroid growth in titration [3]: significant effects

COC(=O)C(Cc1ccc(OCCn2c(=O)sc3cc(C(=O)c4ccccc4)ccc32)cc1)C(=O)OC [compound 526948, [[4-[2-(6-Benzoyl-2-oxo-3(2H)-benzothiazolyl)ethoxy]phenyl]methyl]-1,3-propanedioic acid dimethyl ester]
activation at 10 µM ([1]; 10 μM each): > 25%

COc1cc(OC)cc(N(CCNC(C)C)c2ccc3ncc(-c4cnn(C)c4)nc3c2)c1 [erdafitinib]
growth of spheroid lines (GEI) [2]: suppressed the growth
growth of normal spheroids [7]: hardly suppressed the growth
tumor volume versus control [8]: reduced the tumor volume
tumors that disappeared (complete response) [9]: One of three

COCc1c(-c2cc3cc(C)cc(OC)c3s2)c2c(N)ncnn2c1CN1CCNC(=O)C1 [rogoratinib]
growth of spheroid lines (GEI) [2]: suppressed the growth

AZD4547
growth of spheroid lines (GEI) [2]: suppressed the growth

bFGF: basic fibroblast growth factor, recombinant human protein
extent of growth promotion, bFGF versus EGF [10]: more effective than EGF
